# Source: patent US8445501B2, “Substituted 7-carboxamido-pyrrolo[3,2-d]pyrimidines” (Takeda GmbH, priority 2008, dated 2013)
# Biological target: T1, human PDE5 (Homo sapiens, UniProt O76074)
# T1 construct: from tissue; host or cells: platelets from fresh blood of human donors (lysate, 10,000 g supernatant)
# Test: Inhibition of the type 5 phosphodiesterase (PDE5) activity, modified SPA test with platelet lysate
# Format: biochemical
# Conditions: PDE5 from human platelet lysate, 0.5 μM cGMP
# Procedure, shortened: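 SPA-based cGMP hydrolysis, [3H]cGMP tracer in 0.5 μM cGMP, by sonicated human platelet lysate; motapizone (1 μM) and a PDE2 inhibitor (10 nM) block other PDEs. Reaction 15 min at 37 °C after 5 min preincubation, quenched with beads containing IBMX. IC50 from concentration-effect curves.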
row,Structure (SMILES),IC50 [nM]
1,"COc1cc(OCC2CC2)c(-c2ncnc3c(C(=O)N[C@@H]4CCCN(C(C)=O)C4)c[nH]c23)cc1F [Example 113, 4-(2-Cyclopropylmethoxy-5-fluoro-4-methoxy-phenyl)-5H-pyrrolo[3,2-d]pyrimidine-7-carboxylic acid ((R)-1-acetyl-piperidin-3-yl)-amide]",0.2
2,"CCC(=O)N1CCC[C@H](NC(=O)c2c[nH]c3c(-c4cc(F)c(OC)cc4OCC4CC4)ncnc23)C1 [Example 114, 4-(2-Cyclopropylmethoxy-5-fluoro-4-methoxy-phenyl)-5H-pyrrolo[3,2-d]pyrimidine-7-carboxylic acid ((S)-1-propionyl-piperidin-3-yl)-amide]",2.24
3,"COCC(=O)N1CCC[C@H](NC(=O)c2c[nH]c3c(-c4cc(F)c(OC)cc4OCC4CC4)ncnc23)C1 [Example 115, 4-(2-Cyclopropylmethoxy-5-fluoro-4-methoxy-phenyl)-5H-pyrrolo[3,2-d]pyrimidine-7-carboxylic acid [(S)-1-(2-methoxy-ethanoyl)-piperidin-3-yl]amide]",3.8
4,"COc1cc(OCC2CC2)c(-c2ncnc3c(C(=O)N[C@H]4CCCN(C(C)=O)C4)c[nH]c23)cc1F [Example 116, 4-(2-Cyclopropylmethoxy-5-fluoro-4-methoxy-phenyl)-5H-pyrrolo[3,2-d]pyrimidine-7-carboxylic acid ((S)-1-acetyl-piperidin-3-yl)-amide]",3.09
5,"COc1cc(OCC2CC2)c(-c2ncnc3c(C(=O)N[C@@H]4CCN(C(C)=O)C4)c[nH]c23)cc1F [Example 117, 4-(2-Cyclopropylmethoxy-5-fluoro-4-methoxy-phenyl)-5H-pyrrolo[3,2-d]pyrimidine-7-carboxylic acid ((R)-1-acetyl-pyrrolidin-3-yl)-amide]",1.1
6,"CCC(=O)N1CC[C@@H](NC(=O)c2c[nH]c3c(-c4cc(F)c(OC)cc4OCC4CC4)ncnc23)C1 [Example 118, 4-(2-Cyclopropylmethoxy-5-fluoro-4-methoxy-phenyl)-5H-pyrrolo[3,2-d]pyrimidine-7-carboxylic acid ((R)-1-propionyl-pyrrolidin-3-yl)-amide]",0.501
7,"COCC(=O)N1CC[C@@H](NC(=O)c2c[nH]c3c(-c4cc(F)c(OC)cc4OCC4CC4)ncnc23)C1 [Example 119, 4-(2-Cyclopropylmethoxy-5-fluoro-4-methoxy-phenyl)-5H-pyrrolo[3,2-d]pyrimidine-7-carboxylic acid [(R)-1-(2-methoxy-acetyl)-pyrrolidin-3-yl]amide]",1.2
8,"CC(=O)N[C@H]1CC[C@H](NC(=O)c2c[nH]c3c(-c4cc(C)ccc4OCC4CC4)ncnc23)CC1 [Example 120, trans-4-(2-Cyclopropylmethoxy-5-methyl-phenyl)-5H-pyrrolo[3,2-d]pyrimidine-7-carboxylic acid (4-acetylamino-cyclohexyl)-amide]",1.2
9,"COCC(=O)N[C@H]1CC[C@H](NC(=O)c2c[nH]c3c(-c4cc(C)ccc4OCC4CC4)ncnc23)CC1 [Example 121, trans-4-(2-Cyclopropylmethoxy-5-methyl-phenyl)-5H-pyrrolo[3,2-d]pyrimidine-7-carboxylic acid [4-(2-methoxy-acetylamino)-cyclohexyl]-amide]",1.78
10,"CCOC(=O)N[C@H]1CC[C@H](NC(=O)c2c[nH]c3c(-c4cc(C)ccc4OCC4CC4)ncnc23)CC1 [Example 122, trans-(4-{[4-(2-Cyclopropylmethoxy-5-methyl-phenyl)-5H-pyrrolo[3,2-d]pyrimidine-7-carbonyl]-amino}-cyclohexyl)-carbamic acid ethyl ester]",1.38
11,"CC(=O)N1CCC(NC(=O)c2c[nH]c3c(-c4cc(C)ccc4OCC4CC4)ncnc23)CC1 [Example 123, 4-(2-Cyclopropylmethoxy-5-methyl-phenyl)-5H-pyrrolo[3,2-d]pyrimidine-7-carboxylic acid (1-acetyl-piperidin-4-yl)-amide]",1.82
12,"COCC(=O)N1CCC(NC(=O)c2c[nH]c3c(-c4cc(C)ccc4OCC4CC4)ncnc23)CC1 [Example 124, 4-(2-Cyclopropylmethoxy-5-methyl-phenyl)-5H-pyrrolo[3,2-d]pyrimidine-7-carboxylic acid [1-(2-methoxy-acetyl)piperidin-4-yl]-amide]",2.19
13,"CCOC(=O)N1CCC(NC(=O)c2c[nH]c3c(-c4cc(C)ccc4OCC4CC4)ncnc23)CC1 [Example 125, 4-{[4-(2-Cyclopropylmethoxy-5-methyl-phenyl)-5H-pyrrolo[3,2-d]pyrimidine-7-carbonyl]-amino}-piperidine-1-carboxylic acid ethyl ester]",1.17
14,"CC(=O)N[C@H]1CC[C@H](NC(=O)c2c[nH]c3c(-c4c(OCC5CCC5)ccc5c4OCO5)ncnc23)CC1 [Example 126, trans-4-(5-Cyclobutylmethoxy-benzo[1,3]dioxol-4-yl)-5H-pyrrolo[3,2-d]pyrimidine-7-carboxylic acid (4-acetylamino-cyclohexyl)-amide]",0.468
15,"COCC(=O)N[C@H]1CC[C@H](NC(=O)c2c[nH]c3c(-c4c(OCC5CCC5)ccc5c4OCO5)ncnc23)CC1 [Example 128, trans-4-(5-Cyclobutylmethoxy-benzo[1,3]dioxol-4-yl)-5H-pyrrolo[3,2-d]pyrimidine-7-carboxylic acid [4-(2-methoxy-ethanoylamino)-cyclohexyl]-amide]",0.209
16,"CC(=O)N1CCC(NC(=O)c2c[nH]c3c(-c4c(OCC5CCC5)ccc5c4OCO5)ncnc23)CC1 [Example 129, 4-(5-Cyclobutylmethoxy-benzo[1,3]dioxol-4-yl)-5H-pyrrolo[3,2-d]pyrimidine-7-carboxylic acid (1-acetyl-piperidin-4-yl)-amide]",0.389
17,"O=C(NC1CCN(C(=O)C2CC2)CC1)c1c[nH]c2c(-c3c(OCC4CCC4)ccc4c3OCO4)ncnc12 [Example 130, 4-(5-Cyclobutylmethoxy-benzo[1,3]dioxol-4-yl)-5H-pyrrolo[3,2-d]pyrimidine-7-carboxylic acid [1-(1-cyclopropyl-methanoyl)-piperidin-4-yl]-amide]",0.126
18,"COCC(=O)N1CCC(NC(=O)c2c[nH]c3c(-c4c(OCC5CCC5)ccc5c4OCO5)ncnc23)CC1 [Example 131, 4-(5-Cyclobutylmethoxy-benzo[1,3]dioxol-4-yl)-5H-pyrrolo[3,2-d]pyrimidine-7-carboxylic acid [1-(2-methoxy-ethanoyl)-piperidin-4-yl]amide]",0.49
19,"CCOC(=O)N1CCC(NC(=O)c2c[nH]c3c(-c4c(OCC5CCC5)ccc5c4OCO5)ncnc23)CC1 [Example 132, 4-({1-[4-(5-Cyclobutylmethoxy-benzo[1,3]dioxol-4-yl)-5H-pyrrolo[3,2-d]pyrimidin-7-yl]-methanoyl}-amino)-piperidine-1-carboxylic acid ethyl ester]",0.295
20,"CCOc1ccc2c(c1-c1ncnc3c(C(=O)NC4CCN(C(=O)CC)CC4)c[nH]c13)OCO2 [Example 133, 4-(5-Ethoxy-benzo[1,3]dioxol-4-yl)-5H-pyrrolo[3,2-d]pyrimidine-7-carboxylic acid (1-propionyl-piperidin-4-yl)-amide]",0.631
21,"CCOC(=O)N1CCC(NC(=O)c2c[nH]c3c(-c4c(OCC)ccc5c4OCO5)ncnc23)CC1 [Example 134, 4-{[4-(5-Ethoxy-benzo[1,3]dioxol-4-yl)-5H-pyrrolo[3,2-d]pyrimidine-7-carbonyl]-amino}-piperidine-1-carboxylic acid ethyl ester]",0.347
22,"CCOc1ccc2c(c1-c1ncnc3c(C(=O)NC4CCN(C(=O)COC)CC4)c[nH]c13)OCO2 [Example 135, 4-(5-Ethoxy-benzo[1,3]dioxol-4-yl)-5H-pyrrolo[3,2-d]pyrimidine-7-carboxylic acid [1-(2-methoxy-acetyl)piperidin-4-yl]-amide]",2
23,"CCOc1ccc2c(c1-c1ncnc3c(C(=O)N[C@@H]4CCN(C(=O)CC)C4)c[nH]c13)OCO2 [Example 136, 4-(5-Ethoxy-benzo[1,3]dioxol-4-yl)-5H-pyrrolo[3,2-d]pyrimidine-7-carboxylic acid ((R)-1-propionyl-pyrrolidin-3-yl)-amide]",3.72
24,"CCOC(=O)N1CC[C@@H](NC(=O)c2c[nH]c3c(-c4c(OCC)ccc5c4OCO5)ncnc23)C1 [Example 137, (R)-3-{[4-(5-Ethoxy-benzo[1,3]dioxol-4-yl)-5H-pyrrolo[3,2-d]pyrimidine-7-carbonyl]-amino}-pyrrolidine-1-carboxylic acid ethyl ester]",2.24
25,CCOc1ccc2c(c1-c1ncnc3c(C(=O)N[C@@H]4CCN(C(=O)COC)C4)c[nH]c13)OCO2 [Example 138],6.03
26,"CCCOc1ccc2c(c1-c1ncnc3c(C(=O)NC4CCN(C(=O)CC)CC4)c[nH]c13)OCO2 [Example 139, 4-(5-Propoxy-benzo[1,3]dioxol-4-yl)-5H-pyrrolo[3,2-d]pyrimidine-7-carboxylic acid (1-propionyl-piperidin-4-yl)-amide]",0.204
27,"CCCOc1ccc2c(c1-c1ncnc3c(C(=O)NC4CCN(C(=O)OCC)CC4)c[nH]c13)OCO2 [Example 140, 4-{[4-(5-Propoxy-benzo[1,3]dioxol-4-yl)-5H-pyrrolo[3,2-d]pyrimidine-7-carbonyl]-amino}-piperidine-1-carboxylic acid ethyl ester]",0.148
28,"CCCOc1ccc2c(c1-c1ncnc3c(C(=O)N[C@@H]4CCN(C(=O)CC)C4)c[nH]c13)OCO2 [Example 141, 4-(5-Propoxy-benzo[1,3]dioxol-4-yl)-5H-pyrrolo[3,2-d]pyrimidine-7-carboxylic acid ((R)-1-propionyl-pyrrolidin-3-yl)-amide]",0.933
29,"CCCOc1ccc2c(c1-c1ncnc3c(C(=O)N[C@@H]4CCN(C(=O)OCC)C4)c[nH]c13)OCO2 [Example 142, (R)-3-{[4-(5-Propoxy-benzo[1,3]dioxol-4-yl)-5H-pyrrolo[3,2-d]pyrimidine-7-carbonyl]amino}-pyrrolidine-1-carboxylic acid ethyl ester]",0.617
